Numbered stars: 1 amine (or outer) side, 2 acyl side, 3 side chain; on linkers, the order of the positions; unused ones are H or OH. Side chains are listed from the residue outwards. Ends that are not written are not given here. Peptide text beside a SMILES is read from it. * marks the point of attachment. TTDA(Palmitoyl) = CCCCCCCCCCCCCCCC(=O)NCCCOCCOCCOCCCN*; γGlu = O=C(O)[C@H](CCC(=O)[*:2])N[*:1]; Palmitoyl = CCCCCCCCCCCCCCCC(=O)*; Suc = O=C(CCC(=O)[*:2])[*:1]; GABA = NCCCC(=O)O
How the values were obtained:
[1] = target: T1, human PrRP receptor GPR10 (Homo sapiens, UniProt P49683); assay: Competitive binding in CHO cells transfected with human GPR10 (human 125I-PrRP31); details: for Ki: CHO cells, human 125I-PrRP31, read-out: Ki, GPR10 human receptor transfected in CHO cells; for % of PrRP31, GPR10 human receptor transfected in CHO cells: affinity relative to PrRP31
T1 construct: host or cells: CHO cells
T1 sequence (P49683 1-370): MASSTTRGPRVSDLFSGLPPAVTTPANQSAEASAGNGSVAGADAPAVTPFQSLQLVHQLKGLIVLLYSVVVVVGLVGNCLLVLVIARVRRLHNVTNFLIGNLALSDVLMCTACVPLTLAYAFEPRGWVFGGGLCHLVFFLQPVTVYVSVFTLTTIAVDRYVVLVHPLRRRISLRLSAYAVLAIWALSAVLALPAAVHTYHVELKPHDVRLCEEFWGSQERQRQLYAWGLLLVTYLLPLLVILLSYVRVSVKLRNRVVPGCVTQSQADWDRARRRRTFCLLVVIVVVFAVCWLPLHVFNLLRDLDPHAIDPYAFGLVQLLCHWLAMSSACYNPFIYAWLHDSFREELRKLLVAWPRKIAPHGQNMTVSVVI
Procedure, shortened: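 Values from one-site nonlinear regression of displacement curves: analogs (final 10^-11 to 10^-4 mol·l^-1) competed with 125I-PrRP31 (final 5×10^-11 mol·l^-1) on adherent human GPR10 CHO cells. Binding ran 1 h at room temperature, pH 7.4 buffer with NaCl, MgCl2, CaCl2, glucose, BSA; cell-bound radioactivity counted after NaOH lysis.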

C57BL/6 mice = assay: Food intake in fasted mice after SC injection; assay type: in vivo; details: 5 mg/kg SC, 45 min after injection
Procedure, shortened: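 Saline, PrRP or a lipidated analog was injected SC (1-10 mg/kg) after a 17 h fast with free water, animals housed singly.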

Wistar rats = assay: Food intake in fasted rats after SC injection; assay type: in vivo; details: overnight fasted rats, compared to controls given vehicle
Experimental: NMRI mice, C57BL/6 mice, and Wistar rats (AnLab, Prague, Czech Republic) were housed in a temperature of 23° C. and a daily cycle of 12 h light and dark (light from 6:00). They were given ad libitum water and a standard chow diet that contained 25, 9 and 66% of calories of protein, fat and carbohydrate respectively. Energy content of the feed was 3.4 kcal/g (St-1, Mlýn Kocanda, Czech Republic). Db/db mice and their controls (C57BL/6 background) were obtained from Taconic (Denmark), housed under the same conditions as described above, and fed by Altromin (Taconic, Denmark). ZDF-Lepr^fa/Crl, diabetic fa/fa male rats were obtained from Charles River (France), housed under same conditions as described above, and fed with a Purina 5008 diet (IPS Product Supplies Limited, UK). All experiments followed the ethical guidelines for animal experiments and the law of the Czech Republic Nr. 246/1992.
In experiments with C57BL/6 mice or Wistar rats, food intake was measured with overnight fasted animals in individual cages. Food was withdrawn 17 hours prior to injection of lipidated analog of prolactin releasing peptide (PrRP); free access to water was maintained. The administration of either saline, PrRP, or lipidated analogs was performed by SC injection at doses of 1-10 mg/kg (which corresponded to a volume of 0.2 ml/mouse and 0.1 ml/100 g weight of rat). Fifteen minutes after the lipidated analog of prolactin releasing peptide (PrRP) administration, the mice were given pre-weighed food. The food was then weighed every 30 minutes for 5-10 hours. The administration of each dose was performed at least twice, and each group of mice consisted of at least 6 mice.

rat PrRP receptor = target: T2, rat PrRP receptor (Rattus norvegicus, UniProt Q64121); assay: Competitive binding in RC-4B/C rat pituitary cells (125I-rat PrRP31); details: for Ki: RC-4B/C cells, displacement of 125I-rat PrRP31, read-out: Ki, RC-4B/C rat pituitary cells ^25I-rat PrRP31; for % of PrRP31, RC-4B/C rat pituitary cells: affinity relative to PrRP31
T2 construct: host or cells: RC-4B/C rat pituitary cell line
T2 sequence (Q64121 1-370): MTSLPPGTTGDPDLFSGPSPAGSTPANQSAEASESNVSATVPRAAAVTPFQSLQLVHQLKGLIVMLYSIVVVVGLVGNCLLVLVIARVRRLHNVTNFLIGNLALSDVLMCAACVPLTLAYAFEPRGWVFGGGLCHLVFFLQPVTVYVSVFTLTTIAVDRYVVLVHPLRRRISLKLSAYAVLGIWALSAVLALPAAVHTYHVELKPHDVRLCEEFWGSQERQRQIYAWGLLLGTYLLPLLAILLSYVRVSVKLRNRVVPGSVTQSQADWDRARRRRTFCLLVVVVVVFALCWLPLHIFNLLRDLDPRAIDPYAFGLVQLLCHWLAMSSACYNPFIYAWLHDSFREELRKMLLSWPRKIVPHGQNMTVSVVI
Procedure, shortened: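 Displacement of rat 125I-PrRP31 ([…]) by test analogs, 10^−11–10^−4 mol·l^−1, on whole RC-4B/C cells, 60 min RT. Bound counts measured by γ-counter in duplicate, ≥3 repeats, analyzed by nonlinear one-site binding regression.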

| Ki [1] [nM] | % of PrRP31, GPR10 human receptor transfected in CHO cells [1] [%] | Ki (rat PrRP receptor) [nM] | % of PrRP31, RC-4B/C rat pituitary cells (rat PrRP receptor) [%] | Molecule | Food intake in mice % of saline-treated group (C57BL/6 mice) [%] | Food intake in rats (Wistar rats) |
| --- | --- | --- | --- | --- | --- | --- |
| 6.37 ± 0.78 | 61 |  |  | CCCCCCCCCCCCCCCC(=O)NCCCC[C@H](NC(=O)[C@@H](NC(=O)[C@H](CCC(=O)O)NC(=O)[C@H](CCSC)NC(=O)[C@H](CO)NC(=O)[C@H](Cc1c[nH]cn1)NC(=O)[C@H](CCCNC(=N)N)NC(=O)[C@H](Cc1c[nH]cn1)NC(=O)[C@@H](NC(=O)[C@H](CCCNC(=N)N)NC(=O)[C@@H](N)CO)[C@@H](C)O)[C@@H](C)CC)C(=O)N[C@H](C(=O)N1CCC[C@H]1C(=O)N[C@@H](CC(=O)O)C(=O)N[C@H](C(=O)N[C@@H](CC(N)=O)C(=O)N1CCC[C@H]1C(=O)N[C@@H](C)C(=O)N[C@@H](Cc1c[nH]c2ccccc12)C(=O)N[C@@H](Cc1ccc(O)cc1)C(=O)N[C@@H](C)C(=O)N[C@@H](CO)C(=O)N[C@@H](CCCNC(=N)N)C(=O)NCC(=O)N[C@H](C(=O)N[C@@H](CCCNC(=N)N)C(=O)N1CCC[C@H]1C(=O)N[C@H](C(=O)NCC(=O)N[C@@H](CCCNC(=N)N)C(=O)N[C@@H](Cc1ccccc1)C(N)=O)C(C)C)[C@@H](C)CC)[C@@H](C)CC)[C@@H](C)O [Analog 48] (H-SRTHRHSMEIK(Palmitoyl)TPDINPAWYASRGIRPVGRF-NH2) | 13 | significantly reduced |
| 9.19 ± 0.96 | 42.5 | 1.26 ± 0.57 | 190 | CCCCCCCCCCCCCCCC(=O)NCCCC(=O)NCCCC[C@H](NC(=O)[C@@H](NC(=O)[C@H](CCC(=O)O)NC(=O)[C@H](CCSC)NC(=O)[C@H](CO)NC(=O)[C@H](Cc1c[nH]cn1)NC(=O)[C@H](CCCNC(=N)N)NC(=O)[C@H](Cc1c[nH]cn1)NC(=O)[C@@H](NC(=O)[C@H](CCCNC(=N)N)NC(=O)[C@@H](N)CO)[C@@H](C)O)[C@@H](C)CC)C(=O)N[C@H](C(=O)N1CCC[C@H]1C(=O)N[C@@H](CC(=O)O)C(=O)N[C@H](C(=O)N[C@@H](CC(N)=O)C(=O)N1CCC[C@H]1C(=O)N[C@@H](C)C(=O)N[C@@H](Cc1c[nH]c2ccccc12)C(=O)N[C@@H](Cc1ccc(O)cc1)C(=O)N[C@@H](C)C(=O)N[C@@H](CO)C(=O)N[C@@H](CCCNC(=N)N)C(=O)NCC(=O)N[C@H](C(=O)N[C@@H](CCCNC(=N)N)C(=O)N1CCC[C@H]1C(=O)N[C@H](C(=O)NCC(=O)N[C@@H](CCCNC(=N)N)C(=O)N[C@@H](Cc1ccccc1)C(N)=O)C(C)C)[C@@H](C)CC)[C@@H](C)CC)[C@@H](C)O [Analog 53] (H-SRTHRHSMEIK([GABA-Palmitoyl])TPDINPAWYASRGIRPVGRF-NH2) | 25 | significantly reduced |
| 5.66 ± 0.39 | 57 | 4.23 ± 2.11 | 57 | CCCCCCCCCCCCCCCC(=O)N[C@@H](CCC(=O)NCCCC[C@H](NC(=O)[C@@H](NC(=O)[C@H](CCC(=O)O)NC(=O)[C@H](CCSC)NC(=O)[C@H](CO)NC(=O)[C@H](Cc1c[nH]cn1)NC(=O)[C@H](CCC(=O)O)NC(=O)[C@H](Cc1c[nH]cn1)NC(=O)[C@@H](NC(=O)[C@H](CCC(=O)O)NC(=O)[C@@H](N)CO)[C@@H](C)O)[C@@H](C)CC)C(=O)N[C@H](C(=O)N1CCC[C@H]1C(=O)N[C@@H](CC(=O)O)C(=O)N[C@H](C(=O)N[C@@H](CC(N)=O)C(=O)N1CCC[C@H]1C(=O)N[C@@H](C)C(=O)N[C@@H](Cc1c[nH]c2ccccc12)C(=O)N[C@@H](Cc1ccc(O)cc1)C(=O)N[C@@H](C)C(=O)N[C@@H](CO)C(=O)N[C@@H](CCCNC(=N)N)C(=O)NCC(=O)N[C@H](C(=O)N[C@@H](CCCNC(=N)N)C(=O)N1CCC[C@H]1C(=O)N[C@H](C(=O)NCC(=O)N[C@@H](CCCNC(=N)N)C(=O)N[C@@H](Cc1ccccc1)C(N)=O)C(C)C)[C@@H](C)CC)[C@@H](C)CC)[C@@H](C)O)C(=O)O [Analog 56] (H-SETHEHSMEIK([γGlu-Palmitoyl])TPDINPAWYASRGIRPVGRF-NH2) | 10 |  |
|  | 103 |  | 575 | CCCCCCCCCCCCCCCC(=O)NCCCOCCOCCOCCCNC(=O)CCC(=O)NCCCC[C@H](NC(=O)[C@@H](NC(=O)[C@H](CCC(=O)O)NC(=O)[C@H](CCSC)NC(=O)[C@H](CO)NC(=O)[C@H](Cc1c[nH]cn1)NC(=O)[C@H](CCCNC(=N)N)NC(=O)[C@H](Cc1c[nH]cn1)NC(=O)[C@@H](NC(=O)[C@H](CCC(=O)O)NC(=O)[C@@H](N)CO)[C@@H](C)O)[C@@H](C)CC)C(=O)N[C@H](C(=O)N1CCC[C@H]1C(=O)N[C@@H](CC(=O)O)C(=O)N[C@H](C(=O)N[C@@H](CC(N)=O)C(=O)N1CCC[C@H]1C(=O)N[C@@H](C)C(=O)N[C@@H](Cc1c[nH]c2ccccc12)C(=O)N[C@@H](Cc1ccc(O)cc1)C(=O)N[C@@H](C)C(=O)N[C@@H](CO)C(=O)N[C@@H](CCCNC(=N)N)C(=O)NCC(=O)N[C@H](C(=O)N[C@@H](CCCNC(=N)N)C(=O)N1CCC[C@H]1C(=O)N[C@H](C(=O)NCC(=O)N[C@@H](CCCNC(=N)N)C(=O)N[C@@H](Cc1ccccc1)C(N)=O)C(C)C)[C@@H](C)CC)[C@@H](C)CC)[C@@H](C)O [Analog 58] (H-SETHRHSMEIK([Suc-TTDA(Palmitoyl)])TPDINPAWYASRGIRPVGRF-NH2; N-terminus assumed) | 7 |  |
| 32.4 ± 3.57 | 12 |  | 85 | CCCCCCCCCCCCCCCC(=O)NCCCOCCOCCOCCCNC(=O)CCC(=O)NCCCC[C@H](NC(=O)[C@@H](NC(=O)[C@H](CCC(=O)O)NC(=O)[C@H](CCSC)NC(=O)[C@H](CO)NC(=O)[C@H](Cc1c[nH]cn1)NC(=O)[C@H](CCCNC(=N)N)NC(=O)[C@H](Cc1c[nH]cn1)NC(=O)[C@@H](NC(=O)[C@H](CCCNC(=N)N)NC(=O)[C@H](CO)NC(=O)CCC(=O)NCCCOCCOCCOCCCNC(=O)CCCCCCCCCCCCCCC)[C@@H](C)O)[C@@H](C)CC)C(=O)N[C@H](C(=O)N1CCC[C@H]1C(=O)N[C@@H](CC(=O)O)C(=O)N[C@H](C(=O)N[C@@H](CC(N)=O)C(=O)N1CCC[C@H]1C(=O)N[C@@H](C)C(=O)N[C@@H](Cc1c[nH]c2ccccc12)C(=O)N[C@@H](Cc1ccc(O)cc1)C(=O)N[C@@H](C)C(=O)N[C@@H](CO)C(=O)N[C@@H](CCCNC(=N)N)C(=O)NCC(=O)N[C@H](C(=O)N[C@@H](CCCNC(=N)N)C(=O)N1CCC[C@H]1C(=O)N[C@H](C(=O)NCC(=O)N[C@@H](CCCNC(=N)N)C(=O)N[C@@H](Cc1ccccc1)C(N)=O)C(C)C)[C@@H](C)CC)[C@@H](C)CC)[C@@H](C)O [Analog 59] ({TTDA(Palmitoyl)-Suc}-SRTHRHSMEIK([Suc-TTDA(Palmitoyl)])TPDINPAWYASRGIRPVGRF-NH2) | 23 |  |
| 5.56 ± 0.7 | 70 |  | 143 | TPDINPAWYTGRGIRPVGRF-NH2 [Rat PrRP20, reference compound] | 100 |  |

| Molecule | Ki [1] [nM] | % of PrRP31, GPR10 human receptor transfected in CHO cells [1] [%] | Ki (rat PrRP receptor) [nM] | % of PrRP31, RC-4B/C rat pituitary cells (rat PrRP receptor) [%] | Food intake in mice % of saline-treated group (C57BL/6 mice) [%] | Food intake in rats (Wistar rats) |
| --- | --- | --- | --- | --- | --- | --- |
| SRAHQHSMETRTPDINPAWYTGRGIRPVGRF-NH2 [Rat PrRP31, reference compound] |  | 100 |  | 100 | 100 |  |
